# Assays:
# [1] = tested on: Helicobacter pylori MSD132; assay: MIC by broth microdilution method; type: cell-based; parameters: key: +: Bacterial growth; −: No bacterial growth; details: MSD132 (Sensitive), 72 h
# Description: (§1) 2.1 Detection of minimum inhibitory concentration (MIC, 100 µL system) of zinc linolenate for Helicobacter pylori by a broth microdilution method
# (§2) (1) Zinc linolenate (2 mg/mL) is prepared.
# (§3) (3) Bacterial solution preparation: the Helicobacter pylori grown in a log phase on a solid plate is taken to make a bacterial suspension with a BHI culture medium, the absorbance (OD600) is adjusted to 0.3 (1×10^8 CFU/mL), and the bacterial suspension is diluted 10 times to 1×10^7 CFU/mL for later use.
# (§4) (4) Inoculation of bacterial solution: 10 μL of bacterial solution above is taken and added to the 1-8th wells (the concentration of the bacterial solution per well is about 1.0×10^6 CFU/mL). Culture is performed for 72 h to judge the result. The drug concentrations of the 1-7th wells are 64, 32, 16, 8, 4, 2, and 1 μg/mL, respectively.
# (§5) The experiment only makes sense when the bacteria obviously grow in the 8th well, i.e. the positive control well (without antibiotics). When a single drift occurs in the microdilution method, the maximum drug concentration that inhibits bacterial growth should be recorded. If there are multiple drifts, the results should not be reported and the experiment should be repeated. The experiment is repeated 3 times for each drug.
# [2] = tested on: Helicobacter pylori HP285; assay: MIC by broth microdilution method; type: cell-based; parameters: key: +: Bacterial growth; −: No bacterial growth; details: HP285 (Clarithromycin and metronidazole resistant), 72 h
# Description: as §1, §2, §3, §4, §5
# Helicobacter pylori G27 = assay: MIC by broth microdilution method; type: cell-based; parameters: key: +: Bacterial growth; −: No bacterial growth; details: G27 (Sensitive), 72 h
# Description: as §1, §2, §3, §4, §5
# [3] = tested on: Helicobacter pylori NSH57; assay: MIC by broth microdilution method; type: cell-based; parameters: key: +: Bacterial growth; −: No bacterial growth; details: NSH57 (Sensitive), 72 h
# Description: as §1, §2, §3, §4, §5
# [4] = tested on: 25 kinds of non-Helicobacter pylori bacteria, including Staphylococcus aureus; assay: MIC by microdilution method, 25 kinds of non-Helicobacter pylori bacteria together; type: cell-based; details: all 25 kinds of non-Helicobacter pylori bacteria, 72 h
# Description: (§6) 2.2 Detection of minimum inhibitory concentration (MIC, 100 µL system) of zinc linolenate for non-Helicobacter pylori bacteria by microdilution method
# as §2
# as §3, with “the non-Helicobacter” for “the Helicobacter”, “diluted 100” for “diluted 10”, “to 1×10^6” for “to 1×10^7”, “for” for “for later”
# as §4, with “about 1.0×10^5” for “about 1.0×10^6”, “the first-seventh” for “the 1-7th”, “are 128,” for “are”, “4,” for “4, 2,”, “and 2” for “and 1”
# as §5
# [5] = Animal toxicity, 10 times the therapeutic dose
# Description: (1) Preparation of mice: 20 8-week-old C57BL/6 mice are randomly divided into an administration group containing 10 mice and a negative control group containing 10 mice.
# (2) Intragastric administration: administration is performed with 10 times the therapeutic dose of zinc linolenate, that is, administration is performed according to 240 mg/kg per mouse, once a day for 3 consecutive days. The negative control group is administered with a PBS solution, and the number of times and dose are same as those in the administration group.
# (3) Weighing of weight: the weight of mice is weighed 1 day before administration for 7 consecutive days.
# (4) Efficacy test: the mice in the infection group are weighed 3 days after the drug is stopped, and the average weight is calculated. Blood is taken from the eyeballs, and the mice are sacrificed by cervical dislocation. Stomach, kidney, liver and spleen tissues are taken, pathologically sectioned and HE stained, and serum is tested for liver and kidney functions.
# [6] = tested on: Haemophilus influenzae (ATCC49766); assay: MIC by microdilution method, non-Helicobacter pylori bacteria; type: cell-based; parameters: key: +: Bacterial growth; −: No bacterial growth; details: 72 h
# Description: as §6, §2
# as §3, with “the non-Helicobacter” for “the Helicobacter”, “diluted 100” for “diluted 10”, “to 1×10^6” for “to 1×10^7”, “for” for “for later”
# as §4, with “about 1.0×10^5” for “about 1.0×10^6”, “the first-seventh” for “the 1-7th”, “are 128,” for “are”, “4,” for “4, 2,”, “and 2” for “and 1”
# as §5
# [7] = tested on: Moraxella catarrhalis (ATCC25238); assay: as above; type: cell-based; parameters: key: +: Bacterial growth; −: No bacterial growth; details: 72 h
# Description: as §6, §2
# as §3, with “the non-Helicobacter” for “the Helicobacter”, “diluted 100” for “diluted 10”, “to 1×10^6” for “to 1×10^7”, “for” for “for later”
# as §4, with “about 1.0×10^5” for “about 1.0×10^6”, “the first-seventh” for “the 1-7th”, “are 128,” for “are”, “4,” for “4, 2,”, “and 2” for “and 1”
# as §5
# Candida albicans = assay: as above; type: cell-based; parameters: key: +: Bacterial growth; −: No bacterial growth; details: 72 h
# Description: as §6, §2
# as §3, with “the non-Helicobacter” for “the Helicobacter”, “diluted 100” for “diluted 10”, “to 1×10^6” for “to 1×10^7”, “for” for “for later”
# as §4, with “about 1.0×10^5” for “about 1.0×10^6”, “the first-seventh” for “the 1-7th”, “are 128,” for “are”, “4,” for “4, 2,”, “and 2” for “and 1”
# as §5
# Lactobacillus = assay: as above; type: cell-based; parameters: key: +: Bacterial growth; −: No bacterial growth; details: 72 h
# Description: as §6, §2
# as §3, with “the non-Helicobacter” for “the Helicobacter”, “diluted 100” for “diluted 10”, “to 1×10^6” for “to 1×10^7”, “for” for “for later”
# as §4, with “about 1.0×10^5” for “about 1.0×10^6”, “the first-seventh” for “the 1-7th”, “are 128,” for “are”, “4,” for “4, 2,”, “and 2” for “and 1”
# as §5
structure (smiles),measurement,setting,value
CC/C=C\C/C=C\C/C=C\CCCCCCCC(=O)[O-].CC/C=C\C/C=C\C/C=C\CCCCCCCC(=O)[O-].[Zn+2] [zinc linolenate],Bacterial growth,[1]; zinc linolenate 1 μg/ml,+
same,Bacterial growth,[1]; zinc linolenate 2 μg/ml,+
same,Bacterial growth,[1]; zinc linolenate 4 μg/ml,+
same,Bacterial growth,[1]; zinc linolenate 8 μg/ml,−
same,Bacterial growth,[1]; zinc linolenate 16 μg/ml,−
same,Bacterial growth,[1]; zinc linolenate 32 μg/ml,−
same,Bacterial growth,[1]; zinc linolenate 64 μg/ml,−
same,Bacterial growth,[2]; zinc linolenate 1 μg/ml,+
same,Bacterial growth,[2]; zinc linolenate 2 μg/ml,+
same,Bacterial growth,[2]; zinc linolenate 4 μg/ml,+
same,Bacterial growth,[2]; zinc linolenate 8 μg/ml,−
same,Bacterial growth,[2]; zinc linolenate 16 μg/ml,−
same,Bacterial growth,[2]; zinc linolenate 32 μg/ml,−
same,Bacterial growth,[2]; zinc linolenate 64 μg/ml,−
same,Bacterial growth,Helicobacter pylori G27; zinc linolenate 1 μg/ml,+
same,Bacterial growth,Helicobacter pylori G27; zinc linolenate 2 μg/ml,+
same,Bacterial growth,Helicobacter pylori G27; zinc linolenate 4 μg/ml,−
same,Bacterial growth,Helicobacter pylori G27; zinc linolenate 8 μg/ml,−
same,Bacterial growth,Helicobacter pylori G27; zinc linolenate 16 μg/ml,−
same,Bacterial growth,Helicobacter pylori G27; zinc linolenate 32 μg/ml,−
same,Bacterial growth,Helicobacter pylori G27; zinc linolenate 64 μg/ml,−
same,Bacterial growth,[3]; zinc linolenate 1 μg/ml,+
same,Bacterial growth,[3]; zinc linolenate 2 μg/ml,+
same,Bacterial growth,[3]; zinc linolenate 4 μg/ml,+
same,Bacterial growth,[3]; zinc linolenate 8 μg/ml,−
same,Bacterial growth,[3]; zinc linolenate 16 μg/ml,−
same,Bacterial growth,[3]; zinc linolenate 32 μg/ml,−
same,Bacterial growth,[3]; zinc linolenate 64 μg/ml,−
same,MIC,[4],greater than or equal to 128 μg/mL
same,weight of the mice,"[5]; 240 mg/kg (10 times the therapeutic dose), intragastric, once a day for 3 days, weighed 7 consecutive days",does not change significantly
same,Alanine aminotransferase,"[5]; mouse, in vivo, 240 mg/kg",23.33 U/L
same,Aspartate aminotransferase,"[5]; mouse, in vivo, 240 mg/kg",138.33 U/L
same,Blood urea nitrogen,"[5]; mouse, in vivo, 240 mg/kg",11.90 mmol/L
same,Creatinine,"[5]; mouse, in vivo, 240 mg/kg",15.00 µmol/L
same,Bacterial growth,[6]; zinc linolenate 2 μg/ml,+
same,Bacterial growth,[6]; zinc linolenate 4 μg/ml,+
same,Bacterial growth,[6]; zinc linolenate 8 μg/ml,+
same,Bacterial growth,[6]; zinc linolenate 16 μg/ml,+
same,Bacterial growth,[6]; zinc linolenate 32 μg/ml,+
same,Bacterial growth,[6]; zinc linolenate 64 μg/ml,+
same,Bacterial growth,[6]; zinc linolenate 128 μg/ml,+
same,Bacterial growth,[7]; zinc linolenate 2 μg/ml,+
same,Bacterial growth,[7]; zinc linolenate 4 μg/ml,+
same,Bacterial growth,[7]; zinc linolenate 8 μg/ml,+
same,Bacterial growth,[7]; zinc linolenate 16 μg/ml,+
same,Bacterial growth,[7]; zinc linolenate 32 μg/ml,+
same,Bacterial growth,[7]; zinc linolenate 64 μg/ml,+
same,Bacterial growth,[7]; zinc linolenate 128 μg/ml,+
same,Bacterial growth,Candida albicans; zinc linolenate 2 μg/ml,+
same,Bacterial growth,Candida albicans; zinc linolenate 4 μg/ml,+
same,Bacterial growth,Candida albicans; zinc linolenate 8 μg/ml,+
same,Bacterial growth,Candida albicans; zinc linolenate 16 μg/ml,+
same,Bacterial growth,Candida albicans; zinc linolenate 32 μg/ml,+
same,Bacterial growth,Candida albicans; zinc linolenate 64 μg/ml,+
same,Bacterial growth,Candida albicans; zinc linolenate 128 μg/ml,+
same,Bacterial growth,Lactobacillus; zinc linolenate 2 μg/ml,+
same,Bacterial growth,Lactobacillus; zinc linolenate 4 μg/ml,+
same,Bacterial growth,Lactobacillus; zinc linolenate 8 μg/ml,+
same,Bacterial growth,Lactobacillus; zinc linolenate 16 μg/ml,+
same,Bacterial growth,Lactobacillus; zinc linolenate 32 μg/ml,+
same,Bacterial growth,Lactobacillus; zinc linolenate 64 μg/ml,+
same,Bacterial growth,Lactobacillus; zinc linolenate 128 μg/ml,−

# Source: patent US11203563B2, “Preparation of zinc linolenate, and application of zinc linolenate in preparing anti-helicobacter pylori drug” (NANJING MEDICAL UNIVERSITY, priority 2018, dated 2021)
